Reference: patent US5254550A, “Prolinal derivatives and pharmaceutical compositions thereof” (Ono Pharmaceutical Co., Ltd., priority 1986, dated 1993)
pIC50: −log10 of the molar value. Residues, ends and D or L forms follow the SMILES beside them. *: point of attachment. Cbz = O=C(OCc1ccccc1)*; CH2Cl = ClC*

How the values were obtained:
prolyl endopeptidase [1] = biological target: T1, prolyl endopeptidase (Bos taurus, UniProt Q9XTA2); experiment: Prolyl Endopeptidase Inhibitory Activity in Vitro; assay type: biochemical; conditions: prolyl endopeptidase purified from bovine brain; substrate N-benzyloxycarbonyl-glycyl-prolyl-p-nitroanilide; pH 7.5, 37° C., 15 mins preincubation, 405 nm; read-out: Concentration for 50% inhibition IC50
T1 construct: prolyl endopeptidase which was purified from bovine brain; from tissue; host or cells: bovine brain (purified by the method of J. Biochem., 94, 1179 (1983))
Description: Inhibitory activity of prolyl endopeptidase was measured by the following test system.
A mixed solution of 20 mM tris-HCl buffer (pH 7.5; 935 μl; containing 10 mM EDTA and 10 mM mercaptoethanol), a solution of a compound of the present invention in DMSO (10 μl) and a solution of prolyl endopeptidase which was purified from bovine brain (0.13 unit; prepared by the method described in J. Biochem., 94, 1179 (1983)) in tris-HCl buffer (15 μl) was preincubated for 15 mins at 37° C.
To the solution, 5 mM of N-benzyloxycarbonyl-glycyl-prolyl-p-nitroanilide (40 μl) in a mixture of 40% dioxane-60% water was added. The solution was incubated for 1 min at the same temperature.
Optical absorption (a1) at 405 nm of the solution, and optical absorption (a2) at 405 nm of the solution after more 30 mins' incubation at 37° C. were measured.
Optical absorptions (b1 and b2) of the solutions using DMSO instead of the solution of the compound of the present invention were also measured.
Inhibitory ratio was calculated by the following expression and IC50 (required concentration for 50% inhibition) was obtained (See Protein, Nucleic acid and Enzyme 25(6), 513, 1980). [formula]

prolyl endopeptidase [2] = conditions: See J. Neurochem., 41, 69 (1983); cited from earlier work

T1 sequence (Q9XTA2 whole entry): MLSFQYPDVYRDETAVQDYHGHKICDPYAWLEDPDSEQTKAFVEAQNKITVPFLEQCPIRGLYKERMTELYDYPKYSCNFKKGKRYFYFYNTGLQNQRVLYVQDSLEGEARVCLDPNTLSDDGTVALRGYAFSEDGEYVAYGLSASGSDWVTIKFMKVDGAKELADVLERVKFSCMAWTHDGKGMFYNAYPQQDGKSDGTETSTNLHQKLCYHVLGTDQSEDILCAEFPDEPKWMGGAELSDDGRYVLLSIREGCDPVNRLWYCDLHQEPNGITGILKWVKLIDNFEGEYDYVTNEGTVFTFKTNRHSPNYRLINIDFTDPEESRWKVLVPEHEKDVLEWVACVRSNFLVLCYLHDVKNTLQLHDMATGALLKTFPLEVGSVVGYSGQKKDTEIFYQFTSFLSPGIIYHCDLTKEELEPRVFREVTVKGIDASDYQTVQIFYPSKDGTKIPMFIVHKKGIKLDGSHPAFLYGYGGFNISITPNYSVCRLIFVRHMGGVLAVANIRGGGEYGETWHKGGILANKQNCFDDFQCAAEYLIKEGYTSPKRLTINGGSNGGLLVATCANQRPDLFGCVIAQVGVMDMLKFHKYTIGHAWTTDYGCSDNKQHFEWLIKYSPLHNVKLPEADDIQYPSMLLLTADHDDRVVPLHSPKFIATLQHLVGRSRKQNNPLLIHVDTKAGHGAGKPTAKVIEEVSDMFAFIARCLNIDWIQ

| SMILES | pIC50 (prolyl endopeptidase [1]) | inhibition of prolyl endopeptidase (in words) (prolyl endopeptidase [2]) |
| --- | --- | --- |
| O=C[C@@H]1CCCN1C(=O)CCC(=O)NCc1ccccc1 [1 (a), N-[3-(N-benzylcarbamoyl)propanoyl)-L-prolinal] | 6.64 | – |
| O=C[C@@H]1CCCN1C(=O)CCC(=O)NCC(c1ccccc1)c1ccccc1 [1 (bb), N-[3-[N-(2,2-diphenylethyl)carbamoyl]propanoyl]-L-prolinal] | 5.92 | – |
| O=C[C@@H]1CCCN1C(=O)CCC(=O)NCCCCCc1ccccc1 [1 (h), N-[3-[N-(5-phenylpentyl)carbamoyl]propanol]-L-prolinal] | 7.15 | – |
| CN(Cc1ccccc1)C(=O)C=CC(=O)N1CCC[C@H]1C=O [1 (s), N-[3-(N-benzyl-N-methylcarbamoyl)acryloyl]-L-prolinal] | 5.72 | – |
| O=C[C@@H]1CCCN1C(=O)[C@@H]1CCC[C@H]1C(=O)NCc1ccccc1 [1 (x), N-[(1R,2R)-2-(N-benzylcarbamoyl)cyclopentane-1-carbonyl]-L-prolinal] | 7.85 | – |
| Cc1ccc(CNC(=O)CCC(=O)N2CCC[C@H]2C=O)cc1 [2 (a), N-[3-[N-(4-methylbenzyl)-carbamoyl]propanoyl]-L-prolinal] | 7.64 | – |
| O=C[C@@H]1CCCN1C(=O)CCC(=O)NCc1ccco1 [2 (dd), N-[3-[N-(2-furylmethyl)-carbamoyl]propanoyl]-L-prolinal] | 6.10 | – |
| O=C[C@@H]1CCCN1C(=O)CCC(=O)NCc1ccccc1Cl [2 (e), N-[3-[N-(2-chlorobenzyl)-carbamoyl]propanoyl]-L-prolinal] | 6.80 | – |
| Cc1ccc(CN(C(=O)CCC(=O)N2CCC[C@H]2C=O)c2ccccc2)cc1 [2 (n), N-[3-[N-(4-methylphenyl-methyl)-N-phenyl-carbamoyl]propanoyl]-L-prolinal] | 8.72 | – |
| O=C[C@@H]1CCCN1C(=O)CCC(=O)NCc1cccc2ccccc12 [2 (y), N-[3-[N-(1-naphthyl-methyl)carbamoyl]propanoyl]-L-prolinal] | 7.37 | – |
| O=C[C@@H]1CCCN1C(=O)CCC(=O)NCCc1ccccc1 [Example 1, N-[3-[N-(2-phenylethyl)carbamoyl]propanoyl]-L-prolinal] | 6.89 | – |
| O=C(NCC(=O)N1CCC[C@H]1C(=O)CCl)OCc1ccccc1 [N-benzyloxycarbonyl-glycyl-L-proplyl-chloromethane] (Cbz-Gly-Pro-CH2Cl) | – | strongly inhibit |
